Laboratory results: patent US11013817B2, “Nanoparticles for drug delivery to treat bone disease” (The Cleveland Clinic Foundation, priority 2016, dated 2021)

Test: Solid state solubility of PTX and TXT in polymers (phase separation in cast films)
Assay type: physicochemical
Design: key: +ve: Phase separation; −ve: No phase separation
Text: For this example, polymer and drug solutions in chloroform at different % of drug to polymer were casted into films on glass slides. Following solvent evaporation of chloroform in a chemical hood overnight, the casted films were observed under a light microscope. Phase separation was clearly evident from crystallization of the drug in the polymer film whereas the films were homogeneous when there was no phase separation.

For `CC(=O)O[C@H]1C(=O)[C@@]2(C)[C@H]([C@H](OC(=O)c3ccccc3)[C@]3(O)C[C@H](OC(=O)[C@H](O)[C@@H](NC(=O)c4ccccc4)c4ccccc4)C(C)=C1C3(C)C)[C@]1(OC(C)=O)CO[C@@H]1C[C@@H]2O` [Paclitaxel, 5ß,20-Epoxy-1,2a,4,7ß,10ß,13a-hexahydroxytax-11-en-9-one 4,10-diacetate 2-benzoate 13-ester with (2R,3S)-N-benzoyl-3-phenylisoserine], the “Phase Separation” value (drug 1% w/w, polymer inherent viscosity 0.16 dL/g, Lactide/Glycolide 50/50) was “+”, the “Phase Separation” value (drug 1% w/w, polymer inherent viscosity 0.18 dL/g, Lactide/Glycolide 75/25) was “+” and the “Phase Separation” value (drug 1% w/w, polymer inherent viscosity 0.26-0.54 dL/g, Lactide/Glycolide 50/50, Ester Terminated) was “−”. The “Phase Separation” value (drug 1% w/w, polymer inherent viscosity 0.39 dL/g, Lactide/Glycolide 50/50) was “+”, the “Phase Separation” value (drug 1% w/w, polymer inherent viscosity 0.55-0.75 dL/g, Lactide/Glycolide 50/50, Carbohydrate end Group) was “−” and the “Phase Separation” value (drug 1% w/w, polymer inherent viscosity 0.63 dL/g, Lactide/Glycolide 85/15) was “+”. For the same molecule, the “Phase Separation” value (drug 1% w/w, polymer inherent viscosity 0.64 dL/g, Lactide/Glycolide 65/35) was “+”, the “Phase Separation” value (drug 1% w/w, polymer inherent viscosity 0.64 dL/g, Lactide/Glycolide 75/25) was “+” and the “Phase Separation” value (drug 1% w/w, polymer inherent viscosity 0.67 dL/g, Lactide/Glycolide 65/35) was “+”. For the same molecule, the “Phase Separation” value (drug 1% w/w, polymer inherent viscosity 0.69 dL/g, Lactide/Glycolide 50/50 (first of two such lines, r12)) was “+”, the “Phase Separation” value (drug 1% w/w, polymer inherent viscosity 0.69 dL/g, Lactide/Glycolide 50/50 (second of two such lines, r13)) was “+” and the “Phase Separation” value (drug 1% w/w, polymer inherent viscosity 0.76-0.94 dL/g, Lactide/Glycolide 50/50) was “+”. The “Phase Separation” value (drug 1% w/w, polymer inherent viscosity 0.87 dL/g, Lactide/Glycolide 50/50) was “+”, the “Phase Separation” value (drug 1% w/w, polymer inherent viscosity 0.95-1.20 dL/g, Lactide/Glycolide 50/50) was “−” and the “Phase Separation” value (drug 1% w/w, polymer inherent viscosity 1.15 dL/g, Lactide/Glycolide 50/50) was “+”. The “Phase Separation” value (drug 1% w/w, polymer inherent viscosity 1.24 dL/g, Lactide/Glycolide 50/50) was “+”, the “Phase Separation” value (drug 5% w/w, polymer inherent viscosity 0.16 dL/g, Lactide/Glycolide 50/50) was “+” and the “Phase Separation” value (drug 5% w/w, polymer inherent viscosity 0.18 dL/g, Lactide/Glycolide 75/25) was “+”. The “Phase Separation” value (drug 5% w/w, polymer inherent viscosity 0.26-0.54 dL/g, Lactide/Glycolide 50/50, Ester Terminated) was “−”, the “Phase Separation” value (drug 5% w/w, polymer inherent viscosity 0.39 dL/g, Lactide/Glycolide 50/50) was “+” and the “Phase Separation” value (drug 5% w/w, polymer inherent viscosity 0.55-0.75 dL/g, Lactide/Glycolide 50/50, Carbohydrate end Group) was “−”. For the same molecule, the “Phase Separation” value (drug 5% w/w, polymer inherent viscosity 0.63 dL/g, Lactide/Glycolide 85/15) was “+”, the “Phase Separation” value (drug 5% w/w, polymer inherent viscosity 0.64 dL/g, Lactide/Glycolide 65/35) was “+” and the “Phase Separation” value (drug 5% w/w, polymer inherent viscosity 0.64 dL/g, Lactide/Glycolide 75/25) was “+”. For the same molecule, the “Phase Separation” value (drug 5% w/w, polymer inherent viscosity 0.67 dL/g, Lactide/Glycolide 65/35) was “+”, the “Phase Separation” value (drug 5% w/w, polymer inherent viscosity 0.69 dL/g, Lactide/Glycolide 50/50 (first of two such lines, r12)) was “+” and the “Phase Separation” value (drug 5% w/w, polymer inherent viscosity 0.69 dL/g, Lactide/Glycolide 50/50 (second of two such lines, r13)) was “+”. For the same molecule, the “Phase Separation” value (drug 5% w/w, polymer inherent viscosity 0.76-0.94 dL/g, Lactide/Glycolide 50/50) was “+”, the “Phase Separation” value (drug 5% w/w, polymer inherent viscosity 0.87 dL/g, Lactide/Glycolide 50/50) was “+” and the “Phase Separation” value (drug 5% w/w, polymer inherent viscosity 0.95-1.20 dL/g, Lactide/Glycolide 50/50) was “−”. For the same molecule, the “Phase Separation” value (drug 5% w/w, polymer inherent viscosity 1.15 dL/g, Lactide/Glycolide 50/50) was “+”, the “Phase Separation” value (drug 5% w/w, polymer inherent viscosity 1.24 dL/g, Lactide/Glycolide 50/50) was “+” and the “Phase Separation” value (drug 10% w/w, polymer inherent viscosity 0.16 dL/g, Lactide/Glycolide 50/50) was “+”. For the same molecule, the “Phase Separation” value (drug 10% w/w, polymer inherent viscosity 0.18 dL/g, Lactide/Glycolide 75/25) was “+”, the “Phase Separation” value (drug 10% w/w, polymer inherent viscosity 0.26-0.54 dL/g, Lactide/Glycolide 50/50, Ester Terminated) was “−” and the “Phase Separation” value (drug 10% w/w, polymer inherent viscosity 0.39 dL/g, Lactide/Glycolide 50/50) was “+”. For the same molecule, the “Phase Separation” value (drug 10% w/w, polymer inherent viscosity 0.55-0.75 dL/g, Lactide/Glycolide 50/50, Carbohydrate end Group) was “−”, the “Phase Separation” value (drug 10% w/w, polymer inherent viscosity 0.63 dL/g, Lactide/Glycolide 85/15) was “+” and the “Phase Separation” value (drug 10% w/w, polymer inherent viscosity 0.64 dL/g, Lactide/Glycolide 65/35) was “+”. The “Phase Separation” value (drug 10% w/w, polymer inherent viscosity 0.64 dL/g, Lactide/Glycolide 75/25) was “+”, the “Phase Separation” value (drug 10% w/w, polymer inherent viscosity 0.67 dL/g, Lactide/Glycolide 65/35) was “+” and the “Phase Separation” value (drug 10% w/w, polymer inherent viscosity 0.69 dL/g, Lactide/Glycolide 50/50 (first of two such lines, r12)) was “+”. The “Phase Separation” value (drug 10% w/w, polymer inherent viscosity 0.69 dL/g, Lactide/Glycolide 50/50 (second of two such lines, r13)) was “+”, the “Phase Separation” value (drug 10% w/w, polymer inherent viscosity 0.76-0.94 dL/g, Lactide/Glycolide 50/50) was “+” and the “Phase Separation” value (drug 10% w/w, polymer inherent viscosity 0.87 dL/g, Lactide/Glycolide 50/50) was “+”. For the same molecule, the “Phase Separation” value (drug 10% w/w, polymer inherent viscosity 0.95-1.20 dL/g, Lactide/Glycolide 50/50) was “−”, the “Phase Separation” value (drug 10% w/w, polymer inherent viscosity 1.15 dL/g, Lactide/Glycolide 50/50) was “+” and the “Phase Separation” value (drug 10% w/w, polymer inherent viscosity 1.24 dL/g, Lactide/Glycolide 50/50) was “+”. The “Phase Separation” value (drug 15% w/w, polymer inherent viscosity 0.16 dL/g, Lactide/Glycolide 50/50) was “+”, the “Phase Separation” value (drug 15% w/w, polymer inherent viscosity 0.18 dL/g, Lactide/Glycolide 75/25) was “+” and the “Phase Separation” value (drug 15% w/w, polymer inherent viscosity 0.26-0.54 dL/g, Lactide/Glycolide 50/50, Ester Terminated) was “−”. For the same molecule, the “Phase Separation” value (drug 15% w/w, polymer inherent viscosity 0.39 dL/g, Lactide/Glycolide 50/50) was “+”, the “Phase Separation” value (drug 15% w/w, polymer inherent viscosity 0.55-0.75 dL/g, Lactide/Glycolide 50/50, Carbohydrate end Group) was “−” and the “Phase Separation” value (drug 15% w/w, polymer inherent viscosity 0.63 dL/g, Lactide/Glycolide 85/15) was “+”. The “Phase Separation” value (drug 15% w/w, polymer inherent viscosity 0.64 dL/g, Lactide/Glycolide 65/35) was “+”, the “Phase Separation” value (drug 15% w/w, polymer inherent viscosity 0.64 dL/g, Lactide/Glycolide 75/25) was “+” and the “Phase Separation” value (drug 15% w/w, polymer inherent viscosity 0.67 dL/g, Lactide/Glycolide 65/35) was “+”. For the same molecule, the “Phase Separation” value (drug 15% w/w, polymer inherent viscosity 0.69 dL/g, Lactide/Glycolide 50/50 (first of two such lines, r12)) was “+”, the “Phase Separation” value (drug 15% w/w, polymer inherent viscosity 0.69 dL/g, Lactide/Glycolide 50/50 (second of two such lines, r13)) was “+” and the “Phase Separation” value (drug 15% w/w, polymer inherent viscosity 0.76-0.94 dL/g, Lactide/Glycolide 50/50) was “+”. For the same molecule, the “Phase Separation” value (drug 15% w/w, polymer inherent viscosity 0.87 dL/g, Lactide/Glycolide 50/50) was “+”, the “Phase Separation” value (drug 15% w/w, polymer inherent viscosity 0.95-1.20 dL/g, Lactide/Glycolide 50/50) was “−” and the “Phase Separation” value (drug 15% w/w, polymer inherent viscosity 1.15 dL/g, Lactide/Glycolide 50/50) was “+”. The “Phase Separation” value (drug 15% w/w, polymer inherent viscosity 1.24 dL/g, Lactide/Glycolide 50/50) was “+”, the “Phase Separation” value (drug 20% w/w, polymer inherent viscosity 0.16 dL/g, Lactide/Glycolide 50/50) was “+” and the “Phase Separation” value (drug 20% w/w, polymer inherent viscosity 0.18 dL/g, Lactide/Glycolide 75/25) was “+”. For the same molecule, the “Phase Separation” value (drug 20% w/w, polymer inherent viscosity 0.26-0.54 dL/g, Lactide/Glycolide 50/50, Ester Terminated) was “−”, the “Phase Separation” value (drug 20% w/w, polymer inherent viscosity 0.39 dL/g, Lactide/Glycolide 50/50) was “+” and the “Phase Separation” value (drug 20% w/w, polymer inherent viscosity 0.55-0.75 dL/g, Lactide/Glycolide 50/50, Carbohydrate end Group) was “−”. The “Phase Separation” value (drug 20% w/w, polymer inherent viscosity 0.63 dL/g, Lactide/Glycolide 85/15) was “+”, the “Phase Separation” value (drug 20% w/w, polymer inherent viscosity 0.64 dL/g, Lactide/Glycolide 65/35) was “+” and the “Phase Separation” value (drug 20% w/w, polymer inherent viscosity 0.64 dL/g, Lactide/Glycolide 75/25) was “+”. For the same molecule, the “Phase Separation” value (drug 20% w/w, polymer inherent viscosity 0.67 dL/g, Lactide/Glycolide 65/35) was “+”, the “Phase Separation” value (drug 20% w/w, polymer inherent viscosity 0.69 dL/g, Lactide/Glycolide 50/50 (first of two such lines, r12)) was “+” and the “Phase Separation” value (drug 20% w/w, polymer inherent viscosity 0.69 dL/g, Lactide/Glycolide 50/50 (second of two such lines, r13)) was “+”. For the same molecule, the “Phase Separation” value (drug 20% w/w, polymer inherent viscosity 0.76-0.94 dL/g, Lactide/Glycolide 50/50) was “+”, the “Phase Separation” value (drug 20% w/w, polymer inherent viscosity 0.87 dL/g, Lactide/Glycolide 50/50) was “+” and the “Phase Separation” value (drug 20% w/w, polymer inherent viscosity 0.95-1.20 dL/g, Lactide/Glycolide 50/50) was “+”. For the same molecule, the “Phase Separation” value (drug 20% w/w, polymer inherent viscosity 1.15 dL/g, Lactide/Glycolide 50/50) was “+” and the “Phase Separation” value (drug 20% w/w, polymer inherent viscosity 1.24 dL/g, Lactide/Glycolide 50/50) was “+”.
